The results in this text go back to US8324390B2, “Tetrazole-substituted anthranilamides as pesticides” (Bayer CropScience AG, priority 2008, dated 2012).

Molecules are shown by their SMILES. Read-outs that look alike come from different tables or passages of the source.

Data set [1] relates to caterpillars of the armyworm (Spodoptera frugiperda). The data set is described as follows: Spodoptera frugiperda test (SPODFR spray treatment). Format: in vivo. The following applies: Spodoptera frugiperda, foliar, read-out: effect in % (caterpillars killed). The text has this:
Solvent: 78.0 parts by weight of acetone

Data set [2] has as its system larvae of the mustard beetle (Phaedon cochleariae). The data set is described as follows: Phaedon test (PHAECO spray treatment). The following applies: Phaedon cochleariae, in Brassica rapa, foliar, read-out: effect in % (beetle larvae killed).
Data set [3] in a line: log P determination by HPLC (EEC Directive 79/831 Annex V.A8). It counts as physicochemical. The protocol:
The measurements were carried out using an Agilent 1100 LC system with a 50*4.6 Zorbax Eclipse C18 1.8 μm column (oven temperature 55° C., flow rate 2.0 ml/min).
The following mobile phases were used:
Mobile phase A: acetonitrile+1000 μl of formic acid/l
Mobile phase B: Millipore water+900 μl of formic acid/l

[4] abbreviates: application rate 100 g/ha, maize leaf discs.
Where [5] appears, read: reversed-phase HPLC, Zorbax Eclipse C18 column, by HPLC according to EEC Directive 79/831 Annex V.A8, read-out: log P.

In the case of `CCNC(=O)c1cc(Cl)cc(C)c1NC(=O)c1cc(Cn2nnc(C(F)(F)F)n2)nn1-c1ncccc1Cl` [Example 33], the pest or weed control at 100 g/ha in data set [1] (in Zea mays) and in data set [2] was ≥ 80% throughout. In data set [3] (log P), this compound registered a chromatographic logP of 3.23.

In the case of `Cc1cc(Cl)cc(C(=O)NCC2CC2)c1NC(=O)c1cc(Cn2nnc(C(F)(C(F)(F)F)C(F)(F)F)n2)nn1-c1ncccc1Cl` [Example 359], the pest or weed control at 100 g/ha in data set [1] (setting [4]) and in data set [2] was ≥ 80% in each case. For the same compound, in data set [3] (setting [5]), the chromatographic logP came to 4.26.

As for `O=C(NCC(F)F)c1cc(Cl)cc(Cl)c1NC(=O)c1cc(Cn2nnc(C(F)(C(F)(F)F)C(F)(F)F)n2)nn1-c1ncccc1Cl` [Example 396], the pest or weed control at 100 g/ha in data set [1] (setting [4]) and in data set [2] was ≥ 80% in each case. Also, in data set [3] (setting [5]), the chromatographic logP was found to be 3.89.

For the compound `Cc1cc(Cl)cc(C(=O)NC(C)(C)C)c1NC(=O)c1cc(C(C)n2nnc(C(F)(F)F)n2)nn1-c1ncccc1Cl` (stereo not drawn) [Example 541], the pest or weed control at 100 g/ha in data set [1] (in Zea mays) and in data set [2] was ≥ 80% throughout. The compound also registered a chromatographic logP in data set [3] (log P) of 4.1.

Consider `Cc1cc(I)cc(C(=O)NCC2CC2)c1NC(=O)c1cc(Cn2nnc(C(F)(F)F)n2)nn1-c1ncccc1Cl` [Example 73], for which the pest or weed control at 100 g/ha in data set [1] (in Zea mays) and in data set [2] was ≥ 80% in each case. In data set [3] (log P), the chromatographic logP is 3.78.

Regarding `CC(C)(C)NC(=O)c1cc(Cl)cc(Cl)c1NC(=O)c1cc(Cn2nnc(C(F)(C(F)(F)F)C(F)(F)F)n2)nn1-c1ncccc1Cl` [Example 390], the pest or weed control at 100 g/ha in data set [1] (setting [4]) and in data set [2] was ≥ 80% in each case. For the same compound, the chromatographic logP in data set [3] (setting [5]) came to 4.47.

Regarding `CNC(=O)c1cc(Cl)cc(C)c1NC(=O)c1cc(Cn2nnnc2C(F)(F)F)nn1-c1cc(Cl)ccc1Cl` [Example 473], the pest or weed control at 100 g/ha in data set [1] (setting [4]) and in data set [2] was ≥ 80% each time. Besides, the chromatographic logP in data set [3] (reversed-phase HPLC, Zorbax Eclipse C18 column, determined by HPLC according to EEC Directive 79/831 Annex V.A8, read-out: log P) came to 3.52.

Turning to `CCNC(=O)c1cc(Cl)cc(Cl)c1NC(=O)c1cc(Cn2nnc(C(F)(C(F)(F)F)C(F)(F)F)n2)nn1-c1ncccc1Cl` [Example 388], the pest or weed control at 100 g/ha in data set [1] (in Zea mays) and in data set [2] was ≥ 80% in each case. For the same compound, the chromatographic logP in data set [3] (log P) was 3.89.

Regarding `CNC(=O)c1cc(Cl)cc(Cl)c1NC(=O)c1cc(Cn2nnc(C(F)(C(F)(F)F)C(F)(F)F)n2)nn1-c1ncccc1Cl` [Example 386], the pest or weed control at 100 g/ha in data set [1] (in Zea mays) and in data set [2] was ≥ 80% each time. The compound further came in with a chromatographic logP in data set [3] (log P) of 3.65.

As to `CNC(=O)c1cc(F)cc(C)c1NC(=O)c1cc(Cn2nnc(C(F)(F)C(F)(F)F)n2)nn1-c1ncccc1Cl` [Example 147], the pest or weed control at 100 g/ha in data set [1] (in Zea mays) and in data set [2] was ≥ 80% each time. Moreover, the chromatographic logP in data set [3] (log P) was 3.09.

Turning to `CCNC(=O)c1cc(Cl)cc(C)c1NC(=O)c1cc(Cn2nnc(C(F)(C(F)(F)F)C(F)(F)F)n2)nn1-c1ncccc1Cl` [Example 364], the pest or weed control at 100 g/ha in data set [1] (in Zea mays) and in data set [2] was ≥ 80% throughout. The chromatographic logP in data set [3] (log P) amounted to 3.96.

For `Cc1cc(Br)cc(C(=O)NC(C)C)c1NC(=O)c1cc(Cn2nnc(C(F)(F)F)n2)nn1-c1ncccc1C(F)(F)F` [Example 249], the pest or weed control at 100 g/ha in data set [1] (setting [4]) and in data set [2] was ≥ 80% throughout. The chromatographic logP in data set [3] (setting [5]) was determined as 3.76.

Take `Cc1cc(Cl)cc(C(=O)NCC#N)c1NC(=O)c1cc(Cn2nnc(C(F)(C(F)(F)F)C(F)(F)F)n2)nn1-c1ncccc1Cl` [Example 358]: the pest or weed control at 100 g/ha in data set [1] (in Zea mays) and in data set [2] was ≥ 80% in each case. Further, the chromatographic logP in data set [3] (log P) worked out at 3.62.

With `CNC(=O)c1cc(Br)cc(C)c1NC(=O)c1cc(Cn2nnc(C(F)(F)F)n2)nn1-c1ncccc1Cl` [Example 28], the pest or weed control at 100 g/ha in data set [1] (in Zea mays) and in data set [2] was ≥ 80% throughout. This compound had a chromatographic logP in data set [3] (log P) of 3.05.
